Data set [1] can be described thus: Storage stability of amorphous tenofovir alafenamide hemifumarate and premixes, HPLC purity. On the procedure: As used herein, a compound or pharmaceutical composition is considered “stable” where the HPLC purity of the compound or premix changes by less than about 1% when stored at 5±3° C. and/or at 25° C./60% relative humidity (RH). In certain embodiments, the “stable” compound or premix is stored at 5±3° C. In other embodiments, the “stable” compound or premix is stored at 25° C./60% relative humidity (RH).
Further, the stability of certain embodiments of the premix of amorphous tenofovir alafenamide hemifumarate can be measured by PXRD and HPLC. Thus, HPLC analyses were also performed. HPLC separations were performed on a Waters Alliance 2695 HPLC system with UV detector. Data was collected and analyzed with Empower chromatography software or equivalent. The separation was performed on an X-Bridge Phenyl, 250×4.6 mm, 5 μm column with a mobile phase flow rate of 0.7 mL/min and injection volume of 10 μL. Separations were performed by gradient elution with mobile 1.75 mM tetrabutylammonium bisulfate (pH 2.0) in 5% THF (mobile phase A) and 70:30 acetonitrile:methanol (mobile phase B) as specified in the table below.
The column oven temp was 20° C. and UV detector was set to 260 nm. The purity of the premix was also measured by HPLC using similar conditions.

The nature of data set [2]: Storage stability of amorphous tenofovir alafenamide hemifumarate and premixes, PXRD pattern. In kind it is physicochemical. On the procedure: The amorphous form of tenofovir alafenamide hemifumarate of the present disclosure may be characterized by a PXRD pattern. Thus, the PXRD patterns of the amorphous form of tenofovir alafenamide hemifumarate were obtained on BRUKER D-8 Discover powder diffractometer equipped with goniometer of θ/2θ configuration and Lynx Eye detector. The Cu-anode X-ray tube was operated at 40 kV and 30 mA. The experiments were conducted over the 2θ range of 2.0°-50.0°, 0.030° step size and 0.4 seconds step time.
Thus, the PXRD patterns of several embodiments of the present disclosure were obtained on BRUKER D-8 Discover powder diffractometer equipped with goniometer of θ/2θ configuration and Lynx Eye detector. The Cu-anode X-ray tube was operated at 40 kV and 30 mA. The experiments were conducted over the 2θ range of 2.0°-50.0°, 0.030° step size and 0.4 seconds step time.

Take `CC(C)OC(=O)[C@H](C)N[P@](=O)(CO[C@H](C)Cn1cnc2c(N)ncnc21)Oc1ccccc1` [tenofovir alafenamide hemifumarate]: the “HPLC purity (%)” value in data set [1] (at 5 ± 3° C., 3 months) is reported as 99.45%; in data set [1] (at 5 ± 3° C., 6 months), 99.54%; in data set [1] (at 5 ± 3° C., Initial) it was 99.53%; in data set [1] (at 25° C./60% RH, 3 months), 99.36%; in data set [1] (at 25° C./60% RH, 6 months) it was 99.48%; in data set [1] (at 25° C./60% RH, Initial), 99.53%. Further, in data set [1] (stored at 5±3° C. and at 25° C./60% RH, 3 and 6 months, HPLC and PXRD), the “degradation or change in PXRD pattern on storage” value is given as “no significant degradation or change in PXRD pattern”. Further, the PXRD result in data set [2] (at 5 ± 3° C., 3 months) was “Stable”; in data set [2] (at 5 ± 3° C., 6 months), “Stable”; in data set [2] (at 5 ± 3° C., Initial) it was “Amorphous”; in data set [2] (at 25° C./60% RH, 3 months), “Stable”; in data set [2] (at 25° C./60% RH, 6 months), “Stable”; in data set [2] (at 25° C./60% RH, Initial) it was “Amorphous”.

Values taken from patent publication US20200261479A1, “PROCESSES FOR THE PREPARATION OF AMORPHOUS TENOFOVIR ALAFENAMIDE HEMIFUMARATE AND A PREMIX THEREOF” (MYLAN LABORATORIES LIMITED, priority 2015, published 2020).
